Where two headings read alike, the source gives them in different places.
System: Porcine Smooth Muscle Cell
Assay: Inhibition of smooth muscle cell proliferation (3H-thymidine, serum or PDGF stimulated)
Assay type: cell-based
Settings: Sus scrofa, porcine aortic smooth muscle cells, 24-36 hours; for inhibition at 10 µM: read-out: Porcine Smooth Muscle Cell Antiproliferation % Inhibition at x Concentration, Serum
Procedure: The ability of the compounds of the present invention to inhibit smooth muscle cell proliferation was established using isolated porcine nortic smooth muscle cells in a modification of the procedure of Casteliot et al. J. Biol. Chem 257(19) 11256 (1982), as follows:
Fresh porcine aortas, scrupulously cleansed of fatty tissue, are rinsed in sterile phosphate-buffered saline with 2% antibiotic-antimycotic (100×) liquid ( 10,000 units of penicillin (base), 10,000 μg of streptomycin (base), and 25 μg of amphotericin B/mL utilizing penicillin G (sodium salt), streptomycin sulfate, and amphotericin B as Fungizone® in 0.85% saline, available from Gibco Laboratories, Grand Island Biological Co., Grand Island, N.Y.). The tissue is then digested in 10-15 mL of an enzyme solution containing collagerinse type I, 165 U/mL; elastase type III, 15 U/mL; BSA, 2 mg/mL; and soybean trypsin inhibitor, 0.375 mg/mL, followed by incubation at 37° C. under 5% CO2 atmosphere for 10 to 15 minutes. After this treatment, the outer surface adventitia is removed by peeling with a forceps. The aorta is then longitudinally cut and laid open and the endothelial layer is removed by scraping.
The medial layer of cells is rinsed in the enzyme solution, and placed in a new 100 mm dish with 10 mL of enzyme solution. The medial layer of cells is minced using a fine pair of scissors and digested for 2-3 hours at 37° C. in 30 mL of fresh enzyme solution. After digestion, the medial tissue is homogenized using a sterile Pasteur pipette with a fire polished tip or an Eppendorf pipetter with a 200-1000 gL sterile pipette tip. The suspension is then centrifuged for 10 minutes at 8000 rpm and the pellet is suspended in 4-6 mL of fresh enzyme solution and plated onto 4-6 100 mm flasks with vented caps. The cells are then allowed to grow to confluence and split using 0.25% trypsin. The cells are evaluated for purity and overall quality using antibody to SMC actin.
The cells are assayed in early passage (generally passage 3-7) at sub-confluent conditions. Cultures are grown in 16 mm (24 well) multi-well culture dishes in media 199 supplemented with 10% fetal bovine serum and 2% antibiotic/antimycotic. At subconfluence, the cells are placed in a defined serum free, lymphocyte medium (AIM-V; Gibeo) for 24-48 hours prior to initiating the experimental protocol.
The standard test procedure is initiated by addition of the test compound, ^3 H-thymidine and serum or a specific growth factor to the serum deprived synchronized cells. Growth factor and serum stimulations are optimized for each cell type. The test compounds are added to each well at 50 fold dilution (20 μL/well) and the plates are incubated for 24-36 hours at 37° C. in 5% CO2 atmosphere. Test compounds are dissolved in 50% ethanol and assayed at 1, 10, and 100 μM. As a control, RG 50872 (Bilder, G. A.; et al., Am. J. Cell Physiol., 1991; 260: C721) is routinely assayed under the conditions of each cell preparation at a concentration of 5 μM.
At the completion of the experiment, the plates are placed on ice, washed three times with ice cold PBS and incubated in ice cold 10% trichloroacetic acid (TCA) for 30 minutes to remove acid soluble proteins. Each solution is transferred to a scintillation vial containing 0.4N HCl (500 μL/vial to neutralize NaOH) and each well is rinsed two times with water (500 μL) for a total volume of 2 mL/vial.
Data is quantitated by subjecting the vials to a scintillation counter, in triplicate, for both control and experimental samples. Control (100%) data is obtained from maximally stimulated cells, as the result of growth factor or serum stimulation. Experimental data is obtained from cells maximally stimulated with growth factor or serum and treated with a test compound. (The platelet-derived growth factor used in the assay was human recombinant PDGF-AB purchased from Upstate Biotechnology Inc., Lake Placid, N.Y.). Data is expressed as a percent of control from which IC50 s are determined.

[1] = human recombinant PDGF-AB stimulated, read-out: Porcine Smooth Muscle Cell Antiproliferation IC50, PDGF

Compound	IC50 [1] [nM]	inhibition at 10 µM (serum stimulated) [%]	IC50 (serum stimulated, read-out: Porcine Smooth Muscle Cell Antiproliferation IC50, Serum) [nM]
Clc1ccc(Cn2c(-c3ccccn3)nc3ccccc32)cc1Cl [Example 1, 1-(3,4-Dichiorobenzyl)-2-pyridin-2-yl-1H-benzoimidazole]	4400	39.8	
COC(=O)c1ccc(Cn2c(-c3ccccn3)nc3ccccc32)cc1 [Example 2, 4-[2-(Pyridin-2-yl)-benzoimidazol-1-ylmethyl]-benzoic acid methyl ester]	1100	38.4	
COC(=O)c1ccc(Cn2c(C(F)(F)F)nc3cc(C)c(C)cc32)cc1 [Example 3, 4-(5,6-Dimethyl-2-trifluoromethyl-benzoimidazol-1-ylmethyl)-benzoic acid methyl ester]	2470	41.3	
CCCc1nc2cc([N+](=O)[O-])ccc2n1Cc1ccc(C(=O)OCC)cc1 [Example 4, 4-(5-Nitro-2-propyl-benzoimidazol-1-ylmethyl)-benzoic acid ethyl ester]	760		660
